Reference: PubChem BioAssay (NCI)
“And” between values parts separate entries of the source, which are not always exact repeats. Equal values may be shown once.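 Where inhibition never reached the appropriate level, the endpoint shown equals the highest concentration tested. Otherwise, values were interpolated linearly from a five-concentration, 48-hour dose response in 96-well plates. GI50 is the concentration that inhibits growth by half. At the TGI there is no net growth.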

Experiments:
Test in all cases: growth of human tumour cells (NCI), 48 h
[1] = test system: DU-145 prostate
[2] = test system: K-562 leukemia
[3] = test system: LOX IMVI melanoma
[4] = test system: MDA-MB-231 breast
[5] = test system: NCI/ADR-RES ovarian
[6] = test system: OVCAR-5 ovarian
[7] = test system: SF-268 CNS
[8] = test system: SNB-75 CNS
[9] = test system: SW-620 colon
[10] = test system: TK-10 renal

For `O=C1C2=Nc3ccccc3C(O)N2c2ccccc21` (stereo unspecified), which TGI [1] is on record?
The TGI was > 100 µM.

And the TGI [2]?
The TGI was > 100 µM.

And the TGI [3]?
The TGI was 13.1 µM.

What about the TGI [4] of the same compound?
Its TGI is > 100 µM.

What about the TGI [5] of the same compound?
The TGI was > 100 µM.

What about the TGI [6] of the same compound?
Its TGI is > 100 µM.

And the TGI [7]?
The TGI was > 100 µM.

What about the TGI [8] of the same compound?
The TGI was 90.4 µM.

What about the TGI [9] of the same compound?
Its TGI is > 100 µM.

And the TGI [10]?
Its TGI is > 100 µM.

Which results are given for `Cn1cc(C2=C(c3cccnc3)C(=O)NC2=O)c2ccccc21`?
GI50 [1]: > 25 µM; TGI [1]: > 25 µM; GI50 [2]: > 25 µM; TGI [2]: > 25 µM; GI50 [3]: > 20.9 µM; TGI [3]: > 25 µM; GI50 [4]: > 23.8 µM; TGI [4]: > 25 µM; GI50 [5]: > 25 µM; TGI [5]: > 25 µM; GI50 [6]: > 25 µM; TGI [6]: > 25 µM; GI50 [7]: > 25 µM; TGI [7]: > 25 µM; GI50 [8]: 0.882 µM; TGI [8]: > 25 µM; GI50 [9]: > 25 µM; TGI [9]: > 25 µM; GI50 [10]: > 25 µM; TGI [10]: > 25 µM

Which GI50 [1] does the source give for `COC(=O)c1ccc(NC(=O)Nc2ccc3oc(=O)c4ccccc4c3c2)cc1` here?
Its GI50 is 56.1 µM.

What about the TGI [1] of the same compound?
Its TGI is > 100 µM.

And the GI50 [2]?
Its GI50 is 56.2 µM.

And the TGI [2]?
Its TGI is > 100 µM.

What about the GI50 [3] of the same compound?
Its GI50 is 39.2 µM.

What about the TGI [3] of the same compound?
Its TGI is > 100 µM.

And the GI50 [4]?
The GI50 was 23.7 µM.

What about the TGI [4] of the same compound?
The TGI was 55.9 µM.

What about the GI50 [5] of the same compound?
The GI50 was 41.7 µM.

What about the TGI [5] of the same compound?
Its TGI is > 100 µM.

What about the GI50 [6] of the same compound?
The GI50 was 97.7 µM.

And the TGI [6]?
Its TGI is > 100 µM.

What about the GI50 [7] of the same compound?
The GI50 was 26.2 µM.

What about the TGI [7] of the same compound?
The TGI was 71.2 µM.

And the GI50 [8]?
Its GI50 is 32 µM.

What about the TGI [8] of the same compound?
The TGI was 96.2 µM.

And the GI50 [9]?
The GI50 was 30.9 µM.

What about the TGI [9] of the same compound?
The TGI was 98.3 µM.

What about the GI50 [10] of the same compound?
The GI50 was > 100 µM.

What about the TGI [10] of the same compound?
Its TGI is > 100 µM.

`Cn1nnnc1N/N=C/c1ccccc1` was tested. Which TGI [1] did it give?
The TGI was > 10 µM.

What about the TGI [2] of the same compound?
Its TGI is > 10 µM.

And the TGI [3]?
Its TGI is > 10 µM.

What about the TGI [4] of the same compound?
Its TGI is > 10 µM.

And the TGI [5]?
Its TGI is > 10 µM.

And the TGI [6]?
Its TGI is > 10 µM.

What about the TGI [7] of the same compound?
Its TGI is > 10 µM.

What about the TGI [8] of the same compound?
The TGI was > 10 µM.

What about the TGI [9] of the same compound?
The TGI was > 10 µM.

What about the TGI [10] of the same compound?
The TGI was > 10 µM.

What does the source list for `COc1ccc(-c2nn(-c3cccc(NC(=O)c4ccc5c(c4)OCCO5)c3)cc2-c2ccncc2)cc1Cl`?
GI50 [1]: 3.99 µM; TGI [1]: 24.9 µM; GI50 [2]: 0.71 µM; TGI [2]: 15.9 µM; GI50 [3]: 3 µM; TGI [3]: 13 µM; GI50 [4]: 2.11 µM; TGI [4]: 12.2 µM; GI50 [5]: 1.01 µM; TGI [5]: 4.74 µM; GI50 [6]: 5.19 µM; TGI [6]: 29.8 µM; GI50 [7]: 3.75 µM; TGI [7]: 34 µM; GI50 [8]: 0.602 µM; TGI [8]: 3.5 µM; GI50 [9]: 2.62 µM; TGI [9]: 19.2 µM; GI50 [10]: 5.25 µM; TGI [10]: 29.3 µM

Which GI50 [1] does the source give for `CC1CCN(CCCCCOc2ccc3oc4cc(Cl)ccc4c(=O)c3c2)CC1` here?
Its GI50 is 7.14 µM.

What about the TGI [1] of the same compound?
The TGI was 13.9 µM.

And the GI50 [2]?
Its GI50 is 1.58 µM.

And the TGI [2]?
Its TGI is 6.09 µM.

What about the GI50 [3] of the same compound?
The GI50 was 4.18 µM.

And the TGI [3]?
The TGI was 10.9 µM.

And the GI50 [4]?
Its GI50 is 7.6 µM.

And the TGI [4]?
The TGI was 14.6 µM.

And the GI50 [5]?
Its GI50 is 8.14 µM.

And the TGI [5]?
Its TGI is 21.8 µM.

What about the GI50 [6] of the same compound?
The GI50 was 6.63 µM.

And the TGI [6]?
The TGI was 13.5 µM.

And the GI50 [7]?
Its GI50 is 7.4 µM.

What about the TGI [7] of the same compound?
The TGI was 15.8 µM.

What about the GI50 [8] of the same compound?
The GI50 was 6.59 µM.

And the TGI [8]?
Its TGI is 13 µM.

And the GI50 [9]?
Its GI50 is 6.16 µM.

And the TGI [9]?
The TGI was 13.3 µM.

And the GI50 [10]?
The GI50 was 7.46 µM.

What about the TGI [10] of the same compound?
The TGI was 14.8 µM.

Which results are given for `CN(C)CCOc1ccc(/C(=C(/CCCl)c2ccccc2)c2ccccc2)cc1`?
GI50 [1]: 1.88 µM; TGI [1]: 18.1 µM and 33.2 µM; GI50 [2]: 1.02 µM; TGI [2]: 2.46 µM and 23.6 µM; GI50 [3]: 0.819 µM; GI50 [4]: 1.07 µM; GI50 [5]: 1.6 µM; TGI [5]: 4.95 µM and 30.7 µM; GI50 [6]: 1.52 µM; TGI [6]: 5.09 µM and 33.5 µM; GI50 [7]: 1.51 µM; TGI [7]: 17.4 µM and 33 µM; GI50 [8]: 1.11 µM; TGI [8]: 4.48 µM and 24.2 µM; GI50 [9]: 0.898 µM; GI50 [10]: 0.991 µM
